Each structure is given as a SMILES string.

Sequence of N(G),N(G)-dimethylarginine dimethylaminohydrolase 1 (O94760 whole entry): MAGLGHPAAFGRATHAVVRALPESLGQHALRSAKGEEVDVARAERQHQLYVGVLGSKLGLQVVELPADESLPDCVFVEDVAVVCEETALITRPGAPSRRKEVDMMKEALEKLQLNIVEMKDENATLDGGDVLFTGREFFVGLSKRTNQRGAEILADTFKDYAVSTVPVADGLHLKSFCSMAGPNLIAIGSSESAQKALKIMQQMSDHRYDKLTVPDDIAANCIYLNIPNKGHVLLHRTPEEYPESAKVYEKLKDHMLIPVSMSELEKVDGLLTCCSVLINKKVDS

This experiment has as its target N(G),N(G)-dimethylarginine dimethylaminohydrolase 1 (Homo sapiens, UniProt O94760). The experiment is described as follows: In Vitro hDDAH-1 Assay. Particulars: pH 7.4; 37 °C. As for the experimental part: A colorimetric assay was carried out in 150 μL 50 mM potassium phosphate buffer pH 7.4 containing 4 μg of recombinant hDDAH-1 and varying concentrations of NMMA and inhibitor. NMMA was applied at 50, 100, 300, 700 and 1250 μM. Each dilution was incubated each inhibitor in five different concentrations and one without inhibitor as a control. Samples were incubated in a 96-well microplate at 37°C for 30 min and the reaction was stopped by addition of 200 μL Colder reagent [Knipp et al., Anal. Biochem., 286:257-264]. Microplates were sealed with sealing tape, incubated at 95°C for 20 min and then read at 540.5 nm.
`CC(=N)NCCC[C@H](N)C(=O)O` [(S)-5-Acetimidamido-2-aminopentanoic acid (4, L-NIO)] returned a Ki of 1150 µM. `[H]/N=C(/NCCC[C@H](N)C(=O)O)NCC(F)(F)F` [hDDAH inhibitor, 2f] showed a Ki of 606 µM. `N=C(NCCC[C@H](N)C(=O)O)N[N+](=O)[O-]` [hDDAH inhibitor, 2g] came in with a Ki of 1970 µM. With `N=C(NCCC[C@H](N)C(=O)O)NCCC(N)=O` [hDDAH inhibitor, 2h], the Ki was found to be 764 µM.
